From patent US11692194B2, “Modulating expression of polypeptides via new gene switch expression systems” (Precigen, Inc., priority 2017, dated 2023)

Tested on: RTS-IL-12 in EGFRvIII-CAR-T cells
Assay: IL-12 induction in EGFRvIII-CAR/RTS-IL-12 T cells, ELISA of culture supernatant
Format: cell-based
Text: Sleeping Beauty transposons were designed as depicted in FIG. 22 to stably express EGFRvIII-specific CAR, a cell tag and RTS-IL-12. Transposon plasmids were electroporated in several donor T cells as previously described. EGFRvIII-CAR-T cells were selectively expanded ex vivo by successive rounds of stimulations every 7-10 days for up to 4 cycles with either γ-irradiated or mitomycin C treated AaPC that served as “feeder cells” at 1:1 ratio in media supplemented with IL-2 and IL-21. The AaPC cells used were K562-AaPC expressing EGFRvIII antigen. FIG. 26 depicts CAR expression in T cells from multiple donors as the CAR+ T cells are selectively expanded ex vivo.
To assay IL-12 induction in EGFRvIII-CAR-T cells, Pan T-cells at 24 h post nucleofection were treated with DMSO (control) or veledemix in the presence of AaPCs in media containing IL-21. After 48 hours post-nucleofection, culture supernatants were analyzed for IL-12 levels by ELISA.
Furthermore, the ability of RTS-IL-12/CAR-T cells to produce inducible IL-12 was assessed in presence or absence of antigen specific stimulation. EGFRvIII-CAR/RTS-IL-12 T cells were expanded ex vivo by three successive rounds of stimulation with EGFRvIII^+ AaPCs. […]

CCC[C@@H](N(NC(=O)c1cccc(OC)c1CC)C(=O)c1cc(C)cc(C)c1)C(C)(C)C [veledimex, N-[(1R)-1-(1,1-dimethylethyl)butyl]-N′-(2-ethyl-3-methoxybenzoyl)-3,5-dimethylbenzohydrazide]
veledimex induced IL-12 with versus without EGFRvIII^+ AaPCs (100 nM veledimex, 48 hours, after three rounds of stimulation): greatly enhanced in presence of EGFRvIII antigen specific stimulation | IL-12 expression in culture supernatant (T cells co-expressing CAR and RTS-IL-12, treated 24 h post nucleofection with AaPCs and IL-21): induced IL-12 expression
